Key:
[1] = test system: human pancreatic carcinoma cell line (Capan-2); assay: In vivo tumor growth inhibition, Capan-2 xenograft in nude mice; conditions: oral, 0.1 mL of a 30% (w/w) solution in sunflower oil once a day for 42 days
Method: In vivo measurements of tumor growth inhibition in mice were conducted to determine efficacy of BAP(+), BAP(−), and fractions thereof. A human pancreatic carcinoma cell line (Capan-2 available from European Collection of Cell Cultures, Salisbury UK) was cultivated at 37° C. in a humidified 5% CO2/95% air atmosphere using high glucose D-MEM medium supplemented with 20% fetal bovine serum, 2% penicillin/streptomycin and 1.25% L-glutamine. Before application, cells were harvested by trypsinisation for 30 minutes. Harvested Capan-2 cells were administered subcutaneously to each mouse as 1×10^7 cells in a mixture with a basement membrane preparation (BD MATRIGEL, available from I.T.A.-Interact, Prague CZ). Administration was in the rear right flank of Hsd:athymic nude-Fox n1nu mice (available from Anlab, Prague CZ). […]
Table 12 gives the percentage of tumor weight growth inhibition (% WGI) as compared to the control for various BAP mixtures including BAP(−), BAP(+), pooled fractions F1-F4, F5, a fraction comprising a pooled collection of the F5 sub-fractions enriched in more PCs comprising saturated fatty acids acyl residues (“F5A”), a fraction which comprising a pooled collection of F5 sub-fractions enriched in more PCs comprising unsaturated fatty acid acyl residues (“F5B”), and a fraction of BAP(+) possibly enriched in LPC's (“F5C”). Glycerophosphocholine (GPC) was also evaluated. […]

[2] = biological target: T1, EGFR (ErbB1) d746-750 (Homo sapiens, UniProt P00533, DEL746-750); assay: LANTHASCREEN Eu Kinase Binding Assay; conditions: 10 μM solutions, two independent measurements
T1 construct: purchased Life Technologies
Method: (§1) Measurement of inhibition of various kinases was also performed by binding a tracer to a kinase and the addition of Europium labeled anti-tag antibodies. When bound to the same kinase, the tracer and Europium interact through FRET and fluoresce. Binding of the tracer and antibody to a kinase results in a high degree of FRET, whereas displacement of the tracer with a kinase inhibitor results in a loss of FRET. This method of measurement removes the cleavage step necessary in the above FRET measurement.
(§2) The kinase inhibitory activity of various 10 μM solutions of various fractions was measured (LANTHASCREEN Eu Kinase Binding Assay Profiling Service available from Life Technologies). In these measurements, greater percent displacement indicates greater kinase inhibition. […] The average % displacement is representative of two independent measurements.

[3] = biological target: T2, KIT N822K (Homo sapiens, UniProt P10721, N822K); assay: LANTHASCREEN Eu Kinase Binding Assay; conditions: 10 μM solutions, two independent measurements
T2 construct: purchased Life Technologies
Method: as §1, §2

[4] = biological target: T3, ABL1 M351T (Homo sapiens, UniProt P00519, M351T); assay: LANTHASCREEN Eu Kinase Binding Assay; conditions: 10 μM solutions, two independent measurements
T3 construct: purchased Life Technologies
Method: as §1, §2

[5] = biological target: T4, KIT Y823D (Homo sapiens, UniProt P10721, Y823D); assay: LANTHASCREEN Eu Kinase Binding Assay; conditions: 10 μM solutions, two independent measurements
T4 construct: purchased Life Technologies
Method: as §1, §2

[6] = biological target: T5, TTK (Homo sapiens, UniProt P33981); assay: LANTHASCREEN Eu Kinase Binding Assay; conditions: 10 μM solutions, two independent measurements
T5 construct: purchased Life Technologies
T5 sequence (P33981 1-857): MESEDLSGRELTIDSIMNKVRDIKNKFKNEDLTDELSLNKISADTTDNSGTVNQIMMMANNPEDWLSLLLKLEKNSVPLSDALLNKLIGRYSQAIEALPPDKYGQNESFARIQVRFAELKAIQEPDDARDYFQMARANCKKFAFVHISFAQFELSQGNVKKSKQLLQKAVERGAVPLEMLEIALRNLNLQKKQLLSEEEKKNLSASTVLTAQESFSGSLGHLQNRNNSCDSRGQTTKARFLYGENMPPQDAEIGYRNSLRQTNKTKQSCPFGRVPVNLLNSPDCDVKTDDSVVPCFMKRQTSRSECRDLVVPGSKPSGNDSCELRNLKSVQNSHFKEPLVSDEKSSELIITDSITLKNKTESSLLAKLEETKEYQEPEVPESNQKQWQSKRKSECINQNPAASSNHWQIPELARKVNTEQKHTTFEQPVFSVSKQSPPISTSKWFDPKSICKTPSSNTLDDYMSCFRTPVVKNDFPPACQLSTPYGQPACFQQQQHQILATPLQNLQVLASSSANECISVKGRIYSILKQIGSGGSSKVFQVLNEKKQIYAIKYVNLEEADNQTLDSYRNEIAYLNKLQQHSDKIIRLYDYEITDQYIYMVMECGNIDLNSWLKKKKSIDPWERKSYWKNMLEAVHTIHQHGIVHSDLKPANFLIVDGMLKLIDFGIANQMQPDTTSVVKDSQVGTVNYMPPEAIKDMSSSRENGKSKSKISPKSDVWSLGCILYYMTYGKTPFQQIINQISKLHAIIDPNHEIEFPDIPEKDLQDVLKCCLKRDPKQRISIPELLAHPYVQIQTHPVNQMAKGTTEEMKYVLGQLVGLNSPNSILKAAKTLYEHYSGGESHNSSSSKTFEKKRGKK
Method: as §1, §2

[7] = biological target: T6, KIT D816H (Homo sapiens, UniProt P10721, D816H); assay: LANTHASCREEN Eu Kinase Binding Assay; conditions: 10 μM solutions, two independent measurements
T6 construct: purchased Life Technologies
Method: as §1, §2

[8] = biological target: T7, ALK C1156Y (Homo sapiens, UniProt Q9UM73, C1156Y); assay: LANTHASCREEN Eu Kinase Binding Assay; conditions: 10 μM solutions, two independent measurements
T7 construct: purchased Life Technologies
Method: as §1, §2

[9] = biological target: T8, WEE1 (Homo sapiens, UniProt P30291); assay: LANTHASCREEN Eu Kinase Binding Assay; conditions: 10 μM solutions, two independent measurements
T8 construct: purchased Life Technologies
Method: as §1, §2

[10] = biological target: T9, various kinases (Homo sapiens, UniProt Q96GD4); assay: FRET-peptide kinase inhibition (SELECTSCREEN Kinase Profiling Service); type: biochemical; conditions: kinase AURKB (Aurora B); 10 μM solution; ATP at Km
T9 construct: purchased Life Technologies
Method: (§3) Inhibition of various kinases was measured using fluorescence resonance energy transfer (FRET) analysis. Briefly, a kinase is used to transfer the γ-phosphate of ATP to a single tyrosine, serine, or threonine residue in a synthetic FRET-peptide in the presence of each tested fraction. A kinase inhibitor will prevent phosphorylation. FRET-peptides comprise a donor fluorophore and an acceptor fluorophore, where the acceptor fluorophore will only undergo fluorescence from the excitation wavelength of the donor fluorophore due to resonant energy transfer through the peptide. A development reagent is used to cleave the un-phosphorylated FRET-peptides. An uncleaved FRET-peptide (i.e., phosphorylated peptide) will therefore undergo measureable FRET of both acceptor and donor and be indicative of kinase inhibition. […] Because phosphorylation of FRET-peptides suppresses cleavage by the development reagent, calculation of the ratio of donor emission to acceptor emission after excitation of the donor fluorophore at approximately 400 nm is used to quantitate reaction progress. Low ratios indicate the FRET-peptide is phosphorylated (i.e., little kinase inhibition) and high ratios […] (i.e., kinase inhibition). The percent phosphorylation can therefore be calculated from the emission ratio based on controls for the maximum and minimum phosphorylation. The percent inhibition can be calculated based on the percent phosphorylation of a sample with each fraction as compared to the percent phosphorylation without each fraction.
(§4) The kinase inhibitory activity of various 10 μM solutions of various fractions was measured using the SELECTSCREEN Kinase Profiling Service available from Life Technologies. Unless otherwise indicated, the concentration of ATP in each well is the Michaelis-Menten constant (Km value-the concentration of ATP when the phosphorylation reaction velocity is equal half of the maximal velocity for the reaction). […] Z′ is a measure of statistical effect size to assess the quality of the assay. Z′>0.5 is indicative measurement separated from the background and a reliable assay result. The average % inhibition is representative of two independent measurements.

[11] = biological target: T10, various kinases (Homo sapiens, UniProt P41279); assay: as above; type: biochemical; conditions: kinase MAP3K8 (COT); 10 μM solution; ATP concentration of 100 μM
T10 construct: purchased Life Technologies
Method: as §3, §4

[12] = biological target: T11, mTOR kinase (Homo sapiens, UniProt P42345); assay: as above; type: biochemical; conditions: kinase FRAP1 (mTOR); 10 μM solution; ATP at Km
T11 construct: purchased Life Technologies
Method: as §3, §4

[13] = biological target: T12, various kinases (Homo sapiens, UniProt P48736); assay: as above; type: biochemical; conditions: kinase PIK3CG (p110 gamma); 10 μM solution; ATP at Km
T12 construct: purchased Life Technologies
Method: as §3, §4

[14] = biological target: T13, various kinases (Homo sapiens, UniProt Q8TF76); assay: as above; type: biochemical; conditions: kinase GSG2 (Haspin); 10 μM solution; ATP at Km
T13 construct: purchased Life Technologies
T13 sequence (Q8TF76 1-798): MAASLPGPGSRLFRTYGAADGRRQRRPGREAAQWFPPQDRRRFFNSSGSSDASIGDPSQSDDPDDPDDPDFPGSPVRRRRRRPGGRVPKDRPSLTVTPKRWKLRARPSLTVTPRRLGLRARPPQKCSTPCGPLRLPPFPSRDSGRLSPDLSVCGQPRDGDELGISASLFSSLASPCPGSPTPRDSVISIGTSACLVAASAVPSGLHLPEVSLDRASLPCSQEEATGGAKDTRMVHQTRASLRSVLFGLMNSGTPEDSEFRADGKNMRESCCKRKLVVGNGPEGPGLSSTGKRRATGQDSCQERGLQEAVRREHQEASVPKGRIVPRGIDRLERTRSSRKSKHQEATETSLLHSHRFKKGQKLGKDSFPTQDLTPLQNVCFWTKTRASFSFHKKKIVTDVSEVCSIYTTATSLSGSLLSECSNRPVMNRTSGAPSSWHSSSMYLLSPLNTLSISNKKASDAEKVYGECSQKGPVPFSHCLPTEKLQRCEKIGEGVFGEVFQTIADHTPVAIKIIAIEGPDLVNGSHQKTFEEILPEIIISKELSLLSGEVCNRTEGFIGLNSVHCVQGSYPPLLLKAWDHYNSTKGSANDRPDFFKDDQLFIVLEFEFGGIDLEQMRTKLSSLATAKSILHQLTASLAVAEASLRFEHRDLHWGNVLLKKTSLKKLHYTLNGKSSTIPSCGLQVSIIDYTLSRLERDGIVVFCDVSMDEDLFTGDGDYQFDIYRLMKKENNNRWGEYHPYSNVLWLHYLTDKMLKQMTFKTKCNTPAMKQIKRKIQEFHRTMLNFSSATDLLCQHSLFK
Method: as §3, §4

[15] = biological target: T14, various kinases (Homo sapiens, UniProt O14965); assay: as above; type: biochemical; conditions: kinase AURKA (Aurora A); 10 μM solution; ATP at Km
T14 construct: purchased Life Technologies
T14 sequence (O14965 1-403): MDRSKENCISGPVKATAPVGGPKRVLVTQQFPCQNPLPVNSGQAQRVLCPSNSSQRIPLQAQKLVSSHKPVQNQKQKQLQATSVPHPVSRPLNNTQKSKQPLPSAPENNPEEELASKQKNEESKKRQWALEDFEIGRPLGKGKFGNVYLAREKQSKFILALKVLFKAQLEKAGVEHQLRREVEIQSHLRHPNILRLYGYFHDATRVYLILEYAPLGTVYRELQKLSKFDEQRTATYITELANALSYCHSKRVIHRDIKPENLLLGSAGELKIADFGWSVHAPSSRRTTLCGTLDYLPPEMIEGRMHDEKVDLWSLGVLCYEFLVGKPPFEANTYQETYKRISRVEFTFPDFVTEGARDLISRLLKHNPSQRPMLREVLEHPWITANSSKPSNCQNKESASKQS
Method: as §3, §4

[16] = biological target: T15, SPHK1 kinase (Homo sapiens, UniProt Q9NYA1); assay: as above; type: biochemical; conditions: 10 μM solution, ATP at Km
T15 construct: purchased Life Technologies
Method: as §3, §4

T1 sequence (P00533 with tags, fused parts or gaps DEL746-750 limits assumed): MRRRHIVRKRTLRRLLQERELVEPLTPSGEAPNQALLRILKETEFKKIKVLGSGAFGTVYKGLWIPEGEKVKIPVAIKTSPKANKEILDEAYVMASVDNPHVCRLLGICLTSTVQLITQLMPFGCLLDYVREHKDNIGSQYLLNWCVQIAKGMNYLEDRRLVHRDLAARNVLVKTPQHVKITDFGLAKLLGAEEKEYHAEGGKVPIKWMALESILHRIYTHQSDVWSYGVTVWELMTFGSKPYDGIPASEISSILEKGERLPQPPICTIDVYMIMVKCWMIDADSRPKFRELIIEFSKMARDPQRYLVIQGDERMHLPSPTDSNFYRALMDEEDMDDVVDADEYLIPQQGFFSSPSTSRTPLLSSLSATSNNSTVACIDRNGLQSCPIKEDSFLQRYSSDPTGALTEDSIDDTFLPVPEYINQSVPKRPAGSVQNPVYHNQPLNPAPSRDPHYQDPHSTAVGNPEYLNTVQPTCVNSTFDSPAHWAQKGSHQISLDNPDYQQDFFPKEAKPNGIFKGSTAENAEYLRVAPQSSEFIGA
T8 sequence (P30291 whole entry): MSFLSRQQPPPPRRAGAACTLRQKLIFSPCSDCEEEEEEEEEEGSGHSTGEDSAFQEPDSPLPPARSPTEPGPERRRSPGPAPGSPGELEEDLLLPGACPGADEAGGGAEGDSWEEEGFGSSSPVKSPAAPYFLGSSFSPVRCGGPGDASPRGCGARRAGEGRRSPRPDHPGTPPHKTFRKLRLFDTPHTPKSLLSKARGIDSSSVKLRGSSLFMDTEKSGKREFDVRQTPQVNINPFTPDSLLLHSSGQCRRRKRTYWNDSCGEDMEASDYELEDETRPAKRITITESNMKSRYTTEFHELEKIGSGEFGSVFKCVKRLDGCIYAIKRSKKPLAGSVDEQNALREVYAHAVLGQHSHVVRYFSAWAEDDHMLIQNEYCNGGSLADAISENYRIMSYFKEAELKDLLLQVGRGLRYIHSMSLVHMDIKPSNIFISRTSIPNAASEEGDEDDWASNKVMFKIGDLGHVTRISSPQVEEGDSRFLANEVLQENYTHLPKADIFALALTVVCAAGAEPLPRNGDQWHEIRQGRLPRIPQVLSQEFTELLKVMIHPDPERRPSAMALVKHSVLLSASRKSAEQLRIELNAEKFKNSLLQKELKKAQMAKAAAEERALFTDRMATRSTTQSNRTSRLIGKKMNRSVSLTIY
T2 sequence (P10721 26-976 N822K): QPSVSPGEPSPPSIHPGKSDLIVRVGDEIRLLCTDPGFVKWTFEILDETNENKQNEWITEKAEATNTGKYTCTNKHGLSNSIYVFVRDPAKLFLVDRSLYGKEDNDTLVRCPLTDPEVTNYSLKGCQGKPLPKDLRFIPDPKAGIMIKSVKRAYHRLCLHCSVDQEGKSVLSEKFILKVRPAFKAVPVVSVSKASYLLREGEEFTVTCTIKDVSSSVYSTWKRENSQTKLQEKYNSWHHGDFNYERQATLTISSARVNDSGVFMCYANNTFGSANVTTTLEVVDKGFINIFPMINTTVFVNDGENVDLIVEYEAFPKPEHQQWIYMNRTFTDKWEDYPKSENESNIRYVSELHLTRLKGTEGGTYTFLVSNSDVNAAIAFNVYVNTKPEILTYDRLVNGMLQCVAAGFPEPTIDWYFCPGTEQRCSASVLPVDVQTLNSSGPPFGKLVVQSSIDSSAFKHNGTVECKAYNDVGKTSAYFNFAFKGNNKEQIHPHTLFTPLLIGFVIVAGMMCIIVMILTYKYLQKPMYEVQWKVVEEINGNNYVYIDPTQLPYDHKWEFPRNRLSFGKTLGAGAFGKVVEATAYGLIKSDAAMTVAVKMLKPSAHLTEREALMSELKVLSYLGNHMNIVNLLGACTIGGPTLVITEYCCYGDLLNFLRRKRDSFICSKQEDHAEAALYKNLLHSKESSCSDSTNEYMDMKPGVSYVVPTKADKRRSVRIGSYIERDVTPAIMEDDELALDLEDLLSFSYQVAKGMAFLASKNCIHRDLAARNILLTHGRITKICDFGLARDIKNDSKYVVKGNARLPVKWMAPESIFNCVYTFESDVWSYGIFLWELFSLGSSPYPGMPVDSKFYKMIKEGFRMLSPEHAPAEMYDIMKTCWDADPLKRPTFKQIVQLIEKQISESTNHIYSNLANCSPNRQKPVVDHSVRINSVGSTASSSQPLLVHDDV
T6 sequence (P10721 26-976 D816H): as the sequence (P10721 26-976 N822K) above, with D791H, K797N counted along it
T15 sequence (Q9NYA1 whole entry): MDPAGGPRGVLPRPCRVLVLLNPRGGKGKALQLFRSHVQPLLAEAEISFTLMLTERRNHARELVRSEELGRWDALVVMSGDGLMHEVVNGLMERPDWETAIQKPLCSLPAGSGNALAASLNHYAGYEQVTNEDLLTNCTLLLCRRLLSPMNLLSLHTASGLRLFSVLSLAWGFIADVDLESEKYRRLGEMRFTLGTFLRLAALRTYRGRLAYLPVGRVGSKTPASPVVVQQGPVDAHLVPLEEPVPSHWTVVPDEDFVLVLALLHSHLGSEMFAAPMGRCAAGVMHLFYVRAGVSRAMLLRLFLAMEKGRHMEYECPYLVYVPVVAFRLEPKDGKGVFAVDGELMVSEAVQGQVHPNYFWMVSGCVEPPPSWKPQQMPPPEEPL
T12 sequence (P48736 whole entry): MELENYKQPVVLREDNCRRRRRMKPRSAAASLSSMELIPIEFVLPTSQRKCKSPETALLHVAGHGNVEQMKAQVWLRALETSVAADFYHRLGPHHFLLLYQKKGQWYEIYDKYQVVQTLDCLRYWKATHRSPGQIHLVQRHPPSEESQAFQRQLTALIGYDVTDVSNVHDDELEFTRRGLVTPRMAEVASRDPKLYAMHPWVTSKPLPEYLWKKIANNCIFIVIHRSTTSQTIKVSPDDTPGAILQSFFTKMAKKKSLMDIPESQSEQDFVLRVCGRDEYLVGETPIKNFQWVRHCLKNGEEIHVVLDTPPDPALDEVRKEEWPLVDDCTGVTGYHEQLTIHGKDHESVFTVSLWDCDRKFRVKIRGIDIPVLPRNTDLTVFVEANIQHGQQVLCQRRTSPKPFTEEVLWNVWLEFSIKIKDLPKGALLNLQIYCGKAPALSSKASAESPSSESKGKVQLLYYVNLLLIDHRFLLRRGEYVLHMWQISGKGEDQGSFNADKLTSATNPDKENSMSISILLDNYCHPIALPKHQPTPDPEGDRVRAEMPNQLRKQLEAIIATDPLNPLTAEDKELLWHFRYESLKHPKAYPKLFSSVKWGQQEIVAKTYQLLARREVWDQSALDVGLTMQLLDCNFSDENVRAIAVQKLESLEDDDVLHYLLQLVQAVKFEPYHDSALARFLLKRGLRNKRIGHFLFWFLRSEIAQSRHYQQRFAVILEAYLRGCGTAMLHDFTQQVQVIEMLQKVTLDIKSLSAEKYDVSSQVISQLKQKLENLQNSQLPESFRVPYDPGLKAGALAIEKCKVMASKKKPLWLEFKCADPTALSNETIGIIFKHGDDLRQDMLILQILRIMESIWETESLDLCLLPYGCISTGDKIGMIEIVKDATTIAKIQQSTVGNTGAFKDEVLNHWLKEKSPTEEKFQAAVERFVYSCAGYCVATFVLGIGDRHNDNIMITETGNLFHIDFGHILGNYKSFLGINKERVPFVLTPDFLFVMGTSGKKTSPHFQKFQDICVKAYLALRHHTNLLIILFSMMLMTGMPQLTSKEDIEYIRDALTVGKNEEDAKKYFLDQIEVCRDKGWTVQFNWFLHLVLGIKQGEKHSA
T9 sequence (Q96GD4 whole entry): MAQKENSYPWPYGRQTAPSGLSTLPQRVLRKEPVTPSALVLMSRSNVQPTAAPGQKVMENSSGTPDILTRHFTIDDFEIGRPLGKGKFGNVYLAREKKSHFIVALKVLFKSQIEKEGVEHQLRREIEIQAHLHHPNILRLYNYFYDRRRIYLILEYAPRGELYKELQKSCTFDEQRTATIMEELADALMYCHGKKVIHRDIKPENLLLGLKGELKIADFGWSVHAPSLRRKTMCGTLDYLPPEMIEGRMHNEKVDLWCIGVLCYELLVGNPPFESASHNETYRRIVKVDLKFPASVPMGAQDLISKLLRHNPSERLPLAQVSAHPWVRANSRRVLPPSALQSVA
T10 sequence (P41279 whole entry): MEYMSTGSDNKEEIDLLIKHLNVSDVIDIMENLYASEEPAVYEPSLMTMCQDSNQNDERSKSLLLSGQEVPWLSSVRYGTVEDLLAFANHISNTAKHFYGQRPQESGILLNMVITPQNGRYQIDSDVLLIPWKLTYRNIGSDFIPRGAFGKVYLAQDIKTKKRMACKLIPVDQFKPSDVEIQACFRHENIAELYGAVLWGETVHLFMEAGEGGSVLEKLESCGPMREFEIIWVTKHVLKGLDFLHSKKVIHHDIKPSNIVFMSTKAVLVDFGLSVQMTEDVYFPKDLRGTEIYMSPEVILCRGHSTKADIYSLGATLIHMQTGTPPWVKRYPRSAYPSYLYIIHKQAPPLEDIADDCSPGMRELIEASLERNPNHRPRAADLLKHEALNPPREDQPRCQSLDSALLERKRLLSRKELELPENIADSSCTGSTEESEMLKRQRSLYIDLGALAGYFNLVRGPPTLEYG
T4 sequence (P10721 26-976 Y823D): as the sequence (P10721 26-976 N822K) above, with K797N, Y798D counted along it

## C[N+](C)(C)CCOP(=O)([O-])OC[C@H](O)CO [GPC, glycerophosphocholine]
[1]
  % WGI (percentage of tumor weight growth inhibition as compared to the control): −41.9%
[2]
  Average % Displacement: −1%
[3]
  Average % Displacement: −1%
[4]
  Average % Displacement: 4%
[5]
  Average % Displacement: 2%
[6]
  Average % Displacement: 24%
[7]
  Average % Displacement: 1%
[8]
  Average % Displacement: 4%
[9]
  Average % Displacement: 5%
[10]
  Average % Inhibition: 13%
[11]
  Average % Inhibition: 7%
[12]
  Average % Inhibition: −1%
[13]
  Average % Inhibition: 2%
[14]
  Average % Inhibition: 14%
[15]
  Average % Inhibition: 22%
[16]
  Average % Inhibition: −5%

Source: patent publication US12263181B2, “Phospholipid compositions” (MACHAVERT PHARMACEUTICALS LLC, priority 2016, dated 2025)
